The term melting point denotes the temperature of the solid-liquid transition.

The text below walks through data of a melting point compilation (Tetko et al.; mined from patent text by program, amines drawn as free bases though some values may be those of a salt).

In turn, `CC(=O)Nc1c(C)cc(F)cc1[N+](=O)[O-]` had a melting point of 167 to 172 °C.

In turn, `COc1ccnc(CSc2nc3cscc3n2CO)c1` yielded a melting point of 125 to 127 °C.

Regarding `COC(C)C(=O)Nc1ccc(C2=NNC(=O)CC2)cc1` (stereo unspecified), the melting point lay within 245 to 247 °C.

Turning to `CCCCc1c(C(=O)c2ccc(OCCCN(CCCC)CCCC)cc2)[nH]c2ccc([N+](=O)[O-])cc12`, the melting point turned out to be 80 °C.

In turn, `CCC1CC2C3CCC4=CC(=O)CCC4C3CCC2(C)C1OC(=O)CO` (stereo unspecified) returned a melting point of 156 to 157 °C.

`O=[N+]([O-])c1cnc2ccc(-c3ccccc3)cc2c1Nc1ccccc1Br` showed a melting point of 198 to 204 °C.

Turning to `Nc1c(C(=O)c2cccc(C(F)(F)F)c2)[nH]c2cc(Cl)ccc12`, the melting point lay in the range of 84 to 87 °C.

`CC(C)N1C(=O)C(C)(C)N=C(c2ccccc2Cl)c2cc(N)ccc21`: the melting point lay in the range of 243 to 244 °C.

`CN1C(=O)C2C3CCC(CC3)C2(c2ccc(Cl)c(Cl)c2)C1=O` (stereo unspecified) came in with a melting point of 126 to 134 °C.

Take `CCN(CC)C(=O)c1cc(C(C)(C)C)ccc1-c1ccc(OC)cc1`: the melting point was in the range of 89 to 92 °C.

`Cc1noc(NS(=O)(=O)c2c(Cc3ccc4c(c3)OCO4)sc3ccccc23)c1Cl` had a melting point of 178 to 181 °C.

Compound `O=S(=O)(c1ccccc1)c1ncc(C(F)(F)F)cc1Cl` showed a melting point of 86 to 87 °C.

On to `C=CCN(C(C)=O)c1cccc(C(=O)C=CN(C)C)c1`, for which the melting point lay within 91 to 94 °C.

With `CCOC(=O)C1(C(=O)OCC)CCC2(CC1)NCCc1cc(OC)c(OC)cc12`, the melting point was 103 to 104 °C.

Compound `BrCc1ccc2ccccc2c1CBr` gave a melting point of 149 to 150 °C.

With `O=C(Nc1ccc2c(c1)COCC2)OCc1ccccc1`, the melting point lay in the range of 94 to 95 °C.

`CCCCCOC(=O)Cc1nc(-c2ccccc2)oc1-c1ccsc1`: the melting point lay within 61 to 62 °C.

Take `CC=C1CCC2C3=CC=C4CC(O[Si](C)(C)C(C)(C)C(C)C)CCC4(C)C3CCC12C` (stereo unspecified): the melting point fell in the range of 94 to 97 °C.

As to `O=C(CC(=O)c1ccc(C(F)(F)F)cc1[N+](=O)[O-])c1ccc([N+](=O)[O-])cc1`, the melting point is 139 to 140 °C.

The compound `COC(=O)[C@@](C#N)(Cc1ccc(Br)cc1)[C@H](c1ccccc1OC)c1cccc2ccccc12` (relative stereo) yielded a melting point of 218 to 219 °C.

Regarding `CC(C)(C)c1cccc(S(=O)(=O)n2c(C(C)(O)c3ccc(C(=O)O)s3)cc3cc(C(F)(F)F)ccc32)c1` (stereo unspecified), the melting point turned out to be 80 °C.

As for `CC(C)OCc1nc(C(C)(C)O)c(C(=O)O)n1Cc1ccc(-c2ccccc2-c2nnn[nH]2)cc1`, the melting point is 153 to 161 °C.

Compound `COc1cc(NC(=O)Nc2ccc(C3CCN(C(=O)Nc4ccc(OCCO)cc4Cl)CC3)cc2)cc(OC)c1` displayed a melting point of 101 to 105 °C.

In the case of `NC(=O)c1c(Cl)c(-c2ccccc2)n2c1CN(S(=O)(=O)c1ccccc1)CC2`, the melting point fell in the range of 250 to 252 °C.

Take `O=c1c(-c2ccccc2)c[nH]n1-c1ccccn1`: the melting point fell in the range of 132 to 133 °C.

The compound `CON1CCC(C#N)(OC(=O)Cc2c(C)cc(C)cc2C)CC1` registered a melting point of 75 to 78 °C.

The compound `O=C(Nc1ccccc1)C1=C(O)c2ccccc2N(c2ccccc2)C1` displayed a melting point of 120 °C.

`N=C(N)NCCCOc1ccc2c(c1)NC(=O)C(CCC(=O)O)C2` (stereo unspecified): the melting point was 157 to 159 °C.

The compound `CCCCN(C(C)=O)C1NC(=O)N(c2ccc(OC(C)=O)cc2)C(=O)N1` displayed a melting point of 206 to 208 °C.

For the compound `CS(=O)(=O)Cc1cc(C(=O)C=O)ccc1OCc1ccccc1`, the melting point lay within 108 to 110 °C.

In the case of `N#CCC(C(=O)N1C(=O)OCC1c1ccccc1)c1ccccc1F` (stereo unspecified), the melting point was in the range of 179 to 181 °C.

`Cc1cccc(OCCF)c1S(N)(=O)=O` yielded a melting point of 103 °C.

On to `CCCCc1c(C(=O)OCC)cc(OC)c2ccc(OC)cc12`, for which the melting point is 44 to 45 °C.

In the case of `COc1ccc(Nc2nc(Cl)nc3c(OC)cccc23)c(C)c1`, the melting point is 230 to 232 °C.

As for `CSCC(O)COc1cccc2oc(C(=O)O)cc(=O)c12` (stereo unspecified), the melting point is 76 to 79 °C.

For the compound `CC(=O)NC(C(=O)NCc1cccnc1)c1ccco1` (stereo unspecified), the melting point lay within 172 to 174 °C.

Regarding `Nc1ccc(OCC(COc2ccc(N)cc2)(COc2ccc(N)cc2)COc2ccc(N)cc2)cc1`, the melting point fell in the range of 210 to 211 °C.

In the case of `CCCc1nc2c(N)ncc(Br)c2n1CCOCCNC(=O)NC1CCCCC1`, the melting point is 185 to 186 °C.

With `CNC(=O)C(=NOC)c1cccc(Cl)c1COc1ccc(Sc2ccc(C)cc2)cn1`, the melting point was in the range of 100 to 102 °C.

The compound `CC(=O)OC1=CCC2C3CC=C4CC(OC(C)=O)CCC4(C)C3CCC12C` (stereo unspecified) returned a melting point of 144 to 150 °C.

The compound `COc1ccc2c(n1)C1(CO2)C(=O)N(Cc2ccc3c(c2)OCCO3)c2ccccc21` (stereo unspecified) displayed a melting point of 144 to 146 °C.

As to `CCCc1nc(C(C)(C)O)c(C(=O)OCC)n1Cc1ccc(-c2ccccc2C(=O)NC(C)(C)C)cc1`, the melting point was 145 to 146 °C.

Consider `COc1ccc(C=CC(=O)C2C(=O)C=C(C)OC2=O)cc1O` (stereo unspecified), for which the melting point lay within 217 to 219 °C.

As for `CC(=O)O[C@@H]1C=C2C=C3C(=C(C)C(=O)N3C)C[C@]2(C)[C@@H](C)[C@H]1O`, the melting point lay in the range of 50 to 55 °C.

`Cc1cc(C#N)c(C)c(C(=O)Nc2ccc(C#N)cn2)n1` showed a melting point of 216 °C.

For the compound `Cc1nnc2n1-c1sc(C#Cc3ccccn3)cc1C(c1ccccc1Cl)=NC2`, the melting point fell in the range of 153 to 155 °C.

Compound `CCOC(=O)c1cn(-c2ccc(F)c(NC(C)(C)C)n2)c2c(Cl)c(F)c(F)cc2c1=O` gave a melting point of 207 to 210 °C.

`CC(C)(C)OC(=O)NCc1ccc(CC(=O)Nc2ccc(Nc3cc(-c4cccc5c4oc4ccccc45)ncn3)cc2)cc1` came in with a melting point of 238 to 240 °C.

`CC(C)Cc1nn(C)c(=O)c2cn(Cc3cccc4ccccc34)cc12` registered a melting point of 110 to 112 °C.

In turn, `CC(=O)NC[C@H]1CN(c2ccc(N3CCC(=C(C#N)C(=O)N4CCCC4)CC3)c(F)c2)C(=O)O1` gave a melting point of 125 to 128 °C.

`CC1=Nc2ccc(F)c(F)c2OC1`: the melting point turned out to be 51.2 °C.

Regarding `COc1ccccc1CNc1cccnc1-c1ccccc1`, the melting point was 122 to 125 °C.

Take `CC(C)c1cccc(C(C)C)c1NC(=O)NCC1CCCc2ccccc21` (stereo unspecified): the melting point lay in the range of 189 to 190 °C.

`Cc1c(F)cc(C(=O)O)c(Cl)c1N` gave a melting point of 182 to 184 °C.

The compound `COC(=O)C1C=C2c3cccc4[nH]c(Br)c(c34)CC2N(C)C1` (stereo unspecified) yielded a melting point of 124 to 125 °C.

Take `CS(=O)(=O)c1ccc(-n2nc(C(F)(F)F)cc2-c2ccc(-c3ccoc3)cc2)cc1F`: the melting point lay within 74 to 76 °C.

Turning to `O=C(Cc1ccccc1Cl)N[C@H]1C[C@H](C(=O)O)Nc2cc(Cl)cc(Cl)c21` (relative stereo), the melting point lay within 244 to 245 °C.

For the compound `CC(C)=C(C#N)C(=O)OC(COc1ccc(C(=O)c2ccccc2)c(O)c1)COc1ccc(C(=O)c2ccccc2)c(O)c1`, the melting point was in the range of 145 to 147 °C.

`CCCCCCOc1c(F)ccc(C(N)=O)c1F` had a melting point of 86 to 87 °C.

Compound `Clc1cccc(-c2nnnn2Cc2cscn2)c1Cl` registered a melting point of 153 to 154 °C.

`COc1ccc(NC(=O)c2ccc(N)cc2NC(=O)c2ccc(C(C)(C)C)cc2)cc1` came in with a melting point of 137 to 140 °C.

The compound `CCC(O)(C#Cc1ncn2c1CN(C)C(=O)c1c(Cl)cccc1-2)CC` registered a melting point of 186 to 188 °C.

`CC(C)(C)OC(=O)C(=NO)C(=O)CCOCc1ccccc1` had a melting point of 98 to 100 °C.

In turn, `Cc1c(NC(=O)CC(C)(C)C)c(C)c2c(c1-c1ccncc1)OCC2c1ccc(C(C)C)cc1` (stereo unspecified) showed a melting point of 150 to 152 °C.

Regarding `CN(c1cc(F)c(C#N)cc1F)c1nnnn1-c1ccc(F)cc1`, the melting point amounted to 162 °C.

`c1ccc(C2NCCc3ccccc32)nc1` (racemic): the melting point worked out at 124 °C.

Consider `CCN(c1cccc(Cl)c1)C(C(=O)O)c1c(Cl)cccc1Cl` (stereo unspecified), for which the melting point worked out at 120 °C.

On to `COc1ccc2c(c1)C(=O)N(CCN(C)CCN1C(=O)c3ccccc3C(C)(C)C1=O)C(=O)C2(C)C`, for which the melting point fell in the range of 155 to 156 °C.

For `COc1ccc(-c2nc3ncccc3[nH]2)c2cc(C(C)C)oc12`, the melting point is 242 °C.

Compound `NS(=O)(=O)c1cc(C(=O)NN(c2ccccc2)C2CCCCC2)ccc1Cl` gave a melting point of 216 to 217 °C.

Compound `C1=C(c2cccs2)NN=C(c2cccs2)C1c1cccs1` (stereo unspecified) had a melting point of 168 °C.

Take `COc1ccc2sc(Nc3ccc(OCCN4CCCC4)cc3)nc2c1`: the melting point is 167 to 168 °C.

`CSc1nnc(C2C(=O)N(C(N)=O)c3ccc(Cl)cc32)o1` (stereo unspecified) yielded a melting point of 297 to 299 °C.

Consider `CCCc1nc(Br)c(C(C)(O)C(=O)O)n1Cc1ccc(-c2ccccc2S(=O)(=O)NC(=O)NCc2ccccc2)cc1` (stereo unspecified), for which the melting point turned out to be 153 °C.

As to `O=C1C(=O)c2ccccc2C2=C1SCC1(CCN(C(=O)C=Cc3ccccc3Cl)CC1)O2`, the melting point fell in the range of 110 to 115 °C.

The compound `Cc1onc(C(F)(F)F)c1CS(=O)(=O)C1=NOC(C)(C)C1` yielded a melting point of 135 to 136 °C.

`O=c1oc2c(O)c(O)ccc2c2ccccc12` registered a melting point of 254 to 256 °C.

Turning to `O/C(=C\c1nc2ccccc2c2nccn12)c1cccs1`, the melting point was found to be 128 °C.

For `CCOC(=O)NCCc1cccc(-c2ccnc3c(C#N)cnn23)c1`, the melting point was 133 to 135 °C.

Compound `CCOCc1nc2c(N)nc3cc(OCCCCCCNC(=O)NC(C)C)ccc3c2n1CC(C)(C)NC(=O)NC(C)C` had a melting point of 205 to 209 °C.

`CCn1cc(Nc2nc(-c3cccc(N4Cc5cc(C(C)(C)C)ccc5C4=O)c3CO)cn(C)c2=O)cn1` showed a melting point of 138 to 140 °C.

`COC(=O)C1(NC(=O)C2(Br)SC=C(Br)C2Br)CCCCCC1` (stereo unspecified): the melting point is 165 to 168 °C.

`Cc1nnnn1-c1ccc(/C(=C\C2CCCC2)C(=O)O)cc1Cl` registered a melting point of 216 to 219 °C.

Compound `COc1cc(C(=O)c2ccc(C(F)(F)F)cc2)ccc1OCc1ccccc1` yielded a melting point of 101 °C.

`CCOC(=O)c1oc(-c2ccccc2)cc(=O)c1Cl`: the melting point came to 121 °C.

Compound `O=C1c2ccccc2-n2cnc(CO)c2[C@@H]2CCCN12` came in with a melting point of 212 to 214 °C.
